Test results published in ChEMBL document CHEMBL1153674, “Synthesis and incorporation of 2-amino acid conjugated nucleotides into ribozymes” (Bioorg Med Chem Lett, 1995).

Experiment: Half-life was determined
Format: ADME
Conditions: human

Compound	half-life [min]
N[C@@H]1[C@H](O)[C@@H](CO)O[C@H]1n1ccc(=O)[nH]c1=O	1.5
COc1ccc(C(OCC2OC(n3ccc(=O)[nH]c3=O)C(NC(=O)[C@@H](C)NC(=O)OCC3c4ccccc4-c4ccccc43)C2O)(c2ccccc2)c2ccc(OC)cc2)cc1 (some centres undefined)	13
COc1ccc(C(OCC2OC(n3ccc(=O)[nH]c3=O)C(NC(=O)[C@@H](CC(=O)OCc3ccccc3)NC(=O)OCC3c4ccccc4-c4ccccc43)C2O)(c2ccccc2)c2ccc(OC)cc2)cc1 (some centres undefined)	8
COc1ccc(C(OCC2OC(n3ccc(=O)[nH]c3=O)C(NC(=O)[C@@H](CCCCNC(=O)OCC3c4ccccc4-c4ccccc43)NC(=O)OCC3c4ccccc4-c4ccccc43)C2O)(c2ccccc2)c2ccc(OC)cc2)cc1 (some centres undefined)	11.5
COc1ccc(C(OCC2OC(n3ccc(=O)[nH]c3=O)C(NC(=O)[C@H](NC(=O)OCC3c4ccccc4-c4ccccc43)c3ccccc3)C2O)(c2ccccc2)c2ccc(OC)cc2)cc1 (some centres undefined)	3

Second part, the compound after the results:

half-life [min]	Compound
1	O=C(NCCCC[C@@H](NC(=O)OCC1c2ccccc2-c2ccccc21)C(=O)NC1C(O)C(CO)OC1n1ccc(=O)[nH]c1=O)OCC1c2ccccc2-c2ccccc21 (some centres undefined)
2	O=C(N[C@@H](C(=O)NC1C(O)C(CO)OC1n1ccc(=O)[nH]c1=O)c1ccccc1)OCC1c2ccccc2-c2ccccc21 (some centres undefined)
1	O=C(C[C@@H](NC(=O)OCC1c2ccccc2-c2ccccc21)C(=O)NC1C(O)C(CO)OC1n1ccc(=O)[nH]c1=O)OCc1ccccc1 (some centres undefined)
1.5	C[C@@H](NC(=O)OCC1c2ccccc2-c2ccccc21)C(=O)NC1C(O)C(CO)OC1n1ccc(=O)[nH]c1=O (some centres undefined)
